{"source": "ChEMBL document CHEMBL1157949", "about": "“Kalanchosine dimalate, an anti-inflammatory salt from Kalanchoe brasiliensis” (J Nat Prod, 2006)", "tested_on": "Mus musculus", "assay": "Antiinflammatory activity against zymosan-induced inflammation in mouse assessed as impairment of increase in popliteal lymph node weight at 240 mg/kg, ip administered daily 2 days before zymosan challenge measured after 5 days", "assay_type": "functional, organism-based", "set-up": "dose 240 mg/kg", "note": "The source made the active and inactive calls. The calls are words filed in the database; no cut-off is given here."}
{"smiles": "NC(CC(=O)O)C(O)C(O)C(N)CC(=O)O", "note": "(stereo unspecified)", "values": [{"measurement": "Activity", "result": "Active"}]}
